How the values were obtained:
human TLR4 = target: T1, human TLR4 (Homo sapiens, UniProt O00206+Q9Y6Y9); assay: Human TLR4 reporter gene assay (Test 1); format: cell-based; conditions: HEK-Blue hTLR4 cell line, SEAP reporter, 37° C. 16-20 hours, 0.1% DMSO; concentration giving half of maximal SEAP level induced with LPS
T1 construct: host or cells: HEK-Blue hTLR4 cell line
Source text: Human TLR4 Reporter Gene Assay
(§1) HEK-Blue™ hTLR4 cell line (Invivogen Corporation) is a stably co-transfected cell line which expresses human TLR4, MD2, CD14, and secretory alkaline phosphatase (SEAP) reporter gene under the transcriptional regulation of an NF-κB response element. The TLR4 expression of the cell line has been already tested by RT-PCR, flow cytometry. Transfectants with stable expression were selected using the antibiotic HEK-Blue™ Selection. TLR signaling leads to the translocation of NF-κB and the activation of the promoter results in expression of the SEAP gene. TLR4-specific activation was assessed by determining the level of SEAP produced following incubation of the cells at 37° C. for 16-20 hours with each compound prepared in Examples and Reference examples in the presence of 0.1% (v/v) DMSO. The human TLR4 activity for the present compound was assessed by human TLR4 reporter gene assay, and the concentration of the compound concentration which produced half of the maximal level of SEAP induced with lipopolysaccharide (LPS) was determined as EC50.

mouse TLR4 = target: T2, mouse TLR4 (Mus musculus, UniProt Q9JHF9+Q9QUK6); assay: Mouse TLR4 reporter gene assay (Test 2); format: cell-based; conditions: HEK-Blue mTLR4 cell line, SEAP reporter, 37° C. 16-20 hours, 0.1% DMSO; concentration giving half of maximal SEAP level induced with LPS
T2 construct: host or cells: HEK-Blue mTLR4 cell line
T2 sequence (Q9QUK6 26-835): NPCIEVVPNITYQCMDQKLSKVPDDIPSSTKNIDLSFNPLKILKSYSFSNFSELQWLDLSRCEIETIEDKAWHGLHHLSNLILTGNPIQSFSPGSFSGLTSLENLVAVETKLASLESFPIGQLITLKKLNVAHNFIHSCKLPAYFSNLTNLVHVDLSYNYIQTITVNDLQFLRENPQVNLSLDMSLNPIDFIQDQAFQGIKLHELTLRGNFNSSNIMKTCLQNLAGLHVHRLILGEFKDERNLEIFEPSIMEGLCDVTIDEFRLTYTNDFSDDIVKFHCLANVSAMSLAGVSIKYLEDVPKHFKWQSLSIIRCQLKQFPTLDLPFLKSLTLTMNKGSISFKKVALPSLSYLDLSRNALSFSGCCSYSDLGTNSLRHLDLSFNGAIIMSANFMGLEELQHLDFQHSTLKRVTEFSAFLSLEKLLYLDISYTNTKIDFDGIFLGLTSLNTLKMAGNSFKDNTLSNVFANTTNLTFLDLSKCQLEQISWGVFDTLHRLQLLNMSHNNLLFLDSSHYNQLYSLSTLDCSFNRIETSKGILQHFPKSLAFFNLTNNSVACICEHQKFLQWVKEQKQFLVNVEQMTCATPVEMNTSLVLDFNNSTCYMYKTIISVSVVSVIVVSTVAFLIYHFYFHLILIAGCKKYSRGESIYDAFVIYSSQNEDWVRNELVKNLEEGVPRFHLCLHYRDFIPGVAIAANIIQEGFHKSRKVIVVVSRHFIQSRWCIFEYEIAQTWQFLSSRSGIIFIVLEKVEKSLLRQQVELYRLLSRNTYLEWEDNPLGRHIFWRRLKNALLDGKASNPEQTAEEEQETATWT
T2 sequence (Q9JHF9 19-160): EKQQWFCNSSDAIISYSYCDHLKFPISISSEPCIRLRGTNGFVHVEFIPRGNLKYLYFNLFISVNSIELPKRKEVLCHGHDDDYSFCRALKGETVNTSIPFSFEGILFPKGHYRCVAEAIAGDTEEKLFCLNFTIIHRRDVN
Source text: Mouse TLR4 Reporter Gene Assay
as §1, with “mTLR4” for “hTLR4”, “(Invivogen)” for “(Invivogen Corporation)”, “mouse” for “human”, “CD14” for “CD14,”, “SEAP” for “alkaline phosphatase (SEAP)”, “LPS” for “lipopolysaccharide (LPS)”

T1 sequence (O00206 24-839): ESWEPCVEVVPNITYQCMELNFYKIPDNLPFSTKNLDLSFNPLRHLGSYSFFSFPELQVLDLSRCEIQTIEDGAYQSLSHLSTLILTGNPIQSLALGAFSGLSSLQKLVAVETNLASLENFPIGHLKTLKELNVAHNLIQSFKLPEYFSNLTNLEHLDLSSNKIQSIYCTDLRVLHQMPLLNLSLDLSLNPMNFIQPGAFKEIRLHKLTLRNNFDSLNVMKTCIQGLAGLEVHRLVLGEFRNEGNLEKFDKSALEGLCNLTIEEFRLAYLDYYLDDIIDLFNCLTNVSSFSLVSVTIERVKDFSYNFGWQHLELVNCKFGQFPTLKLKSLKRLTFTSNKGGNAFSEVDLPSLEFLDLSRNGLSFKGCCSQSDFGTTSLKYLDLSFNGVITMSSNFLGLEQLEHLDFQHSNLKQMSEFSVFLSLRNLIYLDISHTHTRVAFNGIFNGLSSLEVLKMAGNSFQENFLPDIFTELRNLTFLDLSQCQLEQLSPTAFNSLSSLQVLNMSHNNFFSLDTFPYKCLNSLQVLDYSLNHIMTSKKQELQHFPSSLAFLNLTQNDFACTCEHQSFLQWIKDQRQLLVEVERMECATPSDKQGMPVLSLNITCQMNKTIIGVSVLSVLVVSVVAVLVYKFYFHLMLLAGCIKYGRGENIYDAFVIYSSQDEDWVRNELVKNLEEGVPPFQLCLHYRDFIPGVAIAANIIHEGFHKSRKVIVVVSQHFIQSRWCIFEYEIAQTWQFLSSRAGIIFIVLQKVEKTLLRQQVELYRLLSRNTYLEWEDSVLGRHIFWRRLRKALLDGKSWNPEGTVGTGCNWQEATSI
T1 sequence (Q9Y6Y9 17-160 limits assumed): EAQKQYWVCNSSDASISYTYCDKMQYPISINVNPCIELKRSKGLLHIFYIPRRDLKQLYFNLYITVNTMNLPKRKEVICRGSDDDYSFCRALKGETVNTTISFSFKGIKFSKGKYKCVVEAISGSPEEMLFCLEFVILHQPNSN

Row | EC50 (human TLR4) [nM] | EC50 (mouse TLR4) [nM] | SMILES
1 | 43.9 | 28.4 | CCCCCCCCCCC[C@H](CC(=O)NC1C(OC[C@@H](NC(=O)C[C@@H](CCCCCCCCCCC)OC(=O)CCCCCCCCC)C(=O)O)OC(CO)C(OP(=O)(O)O)C1OC(=O)C[C@@H](CCCCCCCCCCC)OC(=O)CCCCCCCCc1ccccc1)OC(=O)CCCCCCCCC (stereo partly drawn) [Reference example 9, (2R)-2-{[(3R)-3-(Decanoyloxy)tetradecanoyl]amino}-3-{[3-{[(3R)-3-(decanoyloxy)tetradecanoyl]amino}-6-(hydroxymethyl)-4-({(3R)-3-[(9-phenylnonanoyl)oxy]tetradecanoyl}oxy)-5-(phosphonooxy)oxan-2-yl]oxy}propanoic acid, reference compound]
2 | 43.5 | 14.3 | CCCCCCCCCCC[C@H](CC(=O)NC1C(OC[C@@H](NC(=O)C[C@@H](CCCCCCCCCCC)OC(=O)CCCCCCCCC)C(=O)O)OC(CO)C(O)C1OC(=O)C[C@@H](CCCCCCCCCCC)OC(=O)CCCCCCCCc1ccccc1)OC(=O)CCCCCCCCC (stereo partly drawn) [Example 1, (2R)-2-{[(3R)-3-(Decanoyloxy)tetradecanoyl]amino}-3-{[3-{[(3R)-3-(decanoyloxy)tetradecanoyl]amino}-5-hydroxy-6-(hydroxymethyl)-4-({(3R)-3-[(9-phenylnonanoyl)oxy]tetradecanoyl}oxy)oxan-2-yl]oxy}propanoic acid]
3 | 15 | 14.3 | CCCCCCCCCCC[C@H](CC(=O)NC1C(OC[C@H](NC(=O)C[C@@H](CCCCCCCCCCC)OC(=O)CCCCCCCCC)C(=O)O)OC(CO)C(O)C1OC(=O)C[C@@H](CCCCCCCCCCC)OC(=O)CCCCCCCCc1ccccc1)OC(=O)CCCCCCCCC (stereo partly drawn) [Example 2, (2S)-2-{[(3R)-3-(decanoyloxy)tetradecanoyl]amino}-3-{[3-{[(3R)-3-(decanoyloxy)tetradecanoyl]amino}-5-hydroxy-6-(hydroxymethyl)-4-({(3R)-3-[(9-phenylnonanoyl)oxy]tetradecanoyl}oxy)oxan-2-yl]oxy}propanoic acid]

From patent US20230287027A1, “ADJUVANT WITH TLR4 AGONIST ACTIVITY” (Sumitomo Pharma Co., Ltd, priority 2020, published 2023)
